Results: the supplement of paper PMC10307832

Assays:
Test in all cases: relative viability (nuclei count vs DMSO), 5 days (fraction); higher = more cells survive
[1] = compound: C1COCCN1C2=NC(=NC3=C2OC4=C3C=CC=N4)C5=CC(=CC=C5)NC(=O)C6=CN=C(C=C6)N + N=C(N)NC(=N)NCCc1ccccc1 [Phenformin] (partner 250 µM)
Procedure, shortened: (§1)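 Relative viability divides the nuclei count in treated wells by that in vehicle wells. Lung cancer cell lines were seeded in 1536-well plates, dosed by pin tool the next day, and fixed and stained after 5 days in one step with final 0.05% Triton X-100, 1% formaldehyde and 1 ug/ml Hoechst. Dosing was a single drug or a fixed anchor-drug dose plus five library-drug doses (not always all listed) in √10 steps, and values are medians of duplicate plates imaged at 4×.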

Entinostat + Tozasertib = compound: Nc1ccccc1NC(=O)c1ccc(CNC(=O)OCc2cccnc2)cc1 [Entinostat] + Cc1cc(Nc2cc(N3CCN(C)CC3)nc(Sc3ccc(NC(=O)C4CC4)cc3)n2)n[nH]1 [Tozasertib] (partner 0.1 µM)
Procedure, shortened: as §1

SGI-1776 + Crizotinib = compound: CN1CCC(CNc2ccc3ncc(-c4cccc(OC(F)(F)F)c4)n3n2)CC1 [SGI-1776] + C[C@@H](Oc1cc(-c2cnn(C3CCNCC3)c2)cnc1N)c1c(Cl)ccc(F)c1Cl [Crizotinib] (partner 1 µM)
Procedure, shortened: as §1

SGI-1776 + Phenformin = compound: CN1CCC(CNc2ccc3ncc(-c4cccc(OC(F)(F)F)c4)n3n2)CC1 [SGI-1776] + N=C(N)NC(=N)NCCc1ccccc1 [Phenformin] (partner 250 µM)
Procedure, shortened: as §1

Cell Line | relative viability ([1]; first compound 0.02 µM) | relative viability ([1]; first compound 0.06325 µM) | relative viability ([1]; first compound 0.2 µM) | relative viability ([1]; first compound 0.6325 µM) | relative viability ([1]; first compound 2 µM) | relative viability (Entinostat + Tozasertib; first compound 0.02 µM) | relative viability (Entinostat + Tozasertib; first compound 0.06325 µM) | relative viability (Entinostat + Tozasertib; first compound 0.2 µM) | relative viability (Entinostat + Tozasertib; first compound 0.6325 µM) | relative viability (Entinostat + Tozasertib; first compound 2 µM) | relative viability (SGI-1776 + Crizotinib; first compound 0.08 µM) | relative viability (SGI-1776 + Crizotinib; first compound 0.8 µM) | relative viability (SGI-1776 + Crizotinib; first compound 2.53 µM) | relative viability (SGI-1776 + Crizotinib; first compound 8 µM) | relative viability (SGI-1776 + Phenformin; first compound 0.08 µM) | relative viability (SGI-1776 + Phenformin; first compound 0.8 µM) | relative viability (SGI-1776 + Phenformin; first compound 2.53 µM) | relative viability (SGI-1776 + Phenformin; first compound 8 µM)
COR-L23 | 0.426 | 0.445 | 0.418 | 0.433 | 0.218 | 0.159 | 0.19 | 0.198 | 0.0831 | 0.0903 | 0.821 | 0.491 | 0.519 | 0.495 | 0.488 | 0.479 | 0.444 | 0.358
ChaGo-K-1 | 0.464 | 0.583 | 0.533 | 0.456 | 0.459 | 0.256 | 0.227 | 0.211 | 0.197 | 0.19 | 1.16 | 1.12 | 1.13 | 0.362 | 0.491 | 0.526 | 0.458 | 0.408
HOP-62 | 0.762 | 0.874 | 0.686 | 0.546 | 0.294 | 0.355 | 0.312 | 0.304 | 0.228 | 0.152 | 0.998 | 0.854 | 0.839 | 0.969 | 0.728 | 0.616 | 0.704 | 0.623
NCI-H1975 | 0.394 | 0.416 | 0.388 | 0.37 | 0.243 | 0.516 | 0.352 | 0.249 | 0.122 | 0.115 | 0.999 | 0.833 | 0.771 | 0.441 | 0.426 | 0.41 | 0.403 | 0.379
